Test results as given in patent publication US20110257256A1, “CANNABINOIDS FOR USE IN TREATING OR […] […] […]” (priority 2008, published 2011).
≈ marks a conversion by molar mass, not a printed value. Read-outs that look alike come from different tables or passages of the source.

What was measured:
IFN-γ mRNA = IFN-γ mRNA expression in PHA stimulated PBMC (real-time RT-PCR); format: cell-based, human; conditions: 5 μg/ml (highest concentration tested), PHA 5 μg/ml, 6 h
Experimental: (§1) For quantification of IDO and IFN-γ gene expression, RNA was extracted from PBMC using Trizol reagent (Invitrogen, Vienna, Austria) and reverse-transcribed using Superscript II reverse transcriptase (Invitrogen). Thirty cyles of PCR were performed using Sure Start Taq polymerase (Stratagene, La Jolla, Calif.). Levels of mRNA were quantified by real-time PCR with the ABI/PRISM 7700 sequence detection system (PE Applied Biosystems, Foster City, Calif.). 18sRNA was used as an invariant endogenous control. Specific primers and an internal fluorescent TaqMan probe were designed as follows: human 18sRNA primers, 5′-[…]-3′ (SEQ ID NO:1) and 5′-[…]-3′ (SEQ ID NO:2); 18sRNA probe, 5′-FAM-[…]-TAMRA-3′ (SEQ ID NO:3); human IDO primers, 5′-[…]-3′ (SEQ ID NO:4) and 5′-[…]-3′ (SEQ ID NO:5); IDO probe, 5′-FAM-[…]-TAMRA-3′ (SEQ ID NO:6); human IFN-γ primers, 5′[…]-3′ (SEQ ID NO:7), 5′-[…]-3′ (SEQ ID NO:8); IFN-γ probe, 5′-FAM-[…]-TAMRA-3′ (SEQ ID NO:9). Relative mRNA expression was calculated by dividing the relative quantity of each PCR product by the relative quantity of 18sRNA in each sample.

neopterin formation = assay: Neopterin formation in PBMC supernatants (ELISA); format: cell-based; conditions: Homo sapiens
CB2 receptors = CB2 receptors (Homo sapiens, UniProt P34972); conditions: reported; cited from earlier work
[1] = tested on: human peripheral blood mononuclear cells (PBMC); assay: Cell viability/proliferation of PBMC by MTT-test and trypan blue exclusion; format: cell-based; conditions: 48 h, read-out: IC50 number of viable cells
Experimental: PBMC were isolated from whole blood obtained from healthy donors of whom written informed consent was obtained that their donated blood might be used for scientific purposes in case when it was not selected for transfusion. Separation of blood cells was performed using density centrifugation (Lymphoprep, Nycomed Pharma AS, Oslo, Norway). After isolation, PBMC were washed three times in phosphate buffered saline containing 0.2% 0.5 mM EDTA. Cells were maintained in RPMI 1640 supplemented with 10% heat-inactivated fetal calf serum (Biochrom, Berlin, Germany), 2 mM glutamine (Serva, Heidelberg, Germany) and 0.05 mg/ml gentamicin (Bio-Whittaker, Walkersville, Md.) in a humidified atmosphere containing 5% CO2 for 48 h. This procedure was observed earlier to yield best reproducible results when applied for testing of anti-inflammatory effects of compounds or drugs (Winkler et al., 2007, Int. Arch. Allergy Immunol. 142, 127-132). For each of the four experiments run in duplicates, PBMC were freshly prepared.
Consequently, the cells were stimulated or not with 10 μg/ml PHA or Con A for 48 h.
(§2) After incubation of PBMC with mitogens Con A or PHA (each 10 μg/ml) or treatment of THP-1 cells with LPS (1 μg/ml ), with or without cannabinoids for 48 h, cell viability was measured by MTT-test (3-[4,5-[…]]-2,5 diphenyl tetrazolium bromide) and by trypan blue exclusion method in three experiments performed in triplicates. No toxicity could be observed with solvent (0.1% EtOH; data not shown). IC50 were calculated by the CalcuSyn software from Biosoft, Cambridge, UK, using the original concept of Chou and Talalay (Chou and Talalay, 1984, Adv. Enzyme Regul. 22, 27-55).

[2] = tested on: indoleamine 2,3-dioxygenase (IDO); assay: IDO activity (kyn/trp by HPLC) in THP-1 cells; format: cell-based; conditions: for IC50: Homo sapiens, LPS (1 μg/ml) stimulated THP-1 cells, 48 h, read-out: IC50 decrease of kyn/trp (LPS-induced tryptophan degradation); for effect on tryptophan metabolism (kyn/trp): unstimulated THP-1 cells, CBD effect at the highest concentration tested
IDO mRNA = IDO mRNA expression in PHA stimulated PBMC (real-time RT-PCR); format: cell-based, human; conditions: 5 μg/ml (highest concentration tested), PHA 5 μg/ml, 6 h
Experimental: as §1

[3] = tested on: indoleamine 2,3-dioxygenase (IDO); assay: IDO activity (kyn/trp by HPLC) in PBMC supernatants; format: cell-based, human; conditions: for IC50: Homo sapiens, PBMC; for effect of low doses on activity of the IDO enzyme: low doses 0.01-0.1 μg/ml, mitogen-stimulated PBMC
CB1/CB2 = conditions: reported; cited from earlier work
[4] = tested on: Myelomonocytic THP-1 cells; assay: Cell viability of THP-1 cells by MTT-test and trypan blue exclusion; format: cell-based; conditions: 0.1-10 μg/ml, unstimulated or LPS (1 μg/ml) stimulated THP-1 cells, 48 h
Experimental: Myelomonocytic THP-1 cells were obtained from European Collection of Cell Cultures (ECACC). […] Afterwards, cells were stimulated or not with 1 μg/ml LPS for 48 h.
as §2

[5] = 48 h, Con A-stimulated PBMC (10 μg/ml), 48 h, read-out: IC50 mitogen-induced neopterin production
[6] = 48 h, PHA-stimulated PBMC (10 μg/ml), 48 h, read-out: IC50 mitogen-induced neopterin production
[7] = unstimulated PBMC, read-out: IC50 release of neopterin
[8] = Con A-stimulated PBMC (10 μg/ml)
[9] = unstimulated PBMC, 0.01-20 μg/ml
[10] = 48 h, Con A-stimulated PBMC (10 μg/ml), 48 h, read-out: IC50 mitogen-induced IDO activity (kyn/trp)
[11] = 48 h, PHA-stimulated PBMC (10 μg/ml), 48 h, read-out: IC50 mitogen-induced IDO activity (kyn/trp)
[12] = unstimulated PBMC, 0.01-10 μg/ml, read-out: IC50 decrease of kyn/trp

Sequence of CB2 receptors (P34972 whole entry): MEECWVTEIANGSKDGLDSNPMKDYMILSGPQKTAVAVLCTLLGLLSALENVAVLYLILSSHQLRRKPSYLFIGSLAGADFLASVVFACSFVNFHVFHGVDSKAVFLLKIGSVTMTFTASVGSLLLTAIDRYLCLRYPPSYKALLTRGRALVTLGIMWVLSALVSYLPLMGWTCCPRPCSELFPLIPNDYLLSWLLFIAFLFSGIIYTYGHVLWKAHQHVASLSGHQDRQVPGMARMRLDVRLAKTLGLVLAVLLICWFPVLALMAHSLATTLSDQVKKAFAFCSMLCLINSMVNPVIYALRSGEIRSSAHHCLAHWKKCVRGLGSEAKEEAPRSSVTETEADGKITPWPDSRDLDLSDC

Row | Compound | inhibition of mitogen-stimulated expression of IFN-γ mRNA (IFN-γ mRNA) | IC50 (neopterin formation; [5]) | IC50 (neopterin formation; [6]) | IC50 (neopterin formation; [7]) | affinity (CB2 receptors) | IC50 [1, 8] | IC50 ([1]; PHA-stimulated PBMC (10 μg/ml)) | IC50 [1, 9] | IC50 [2] | effect on tryptophan metabolism (kyn/trp) [2] | inhibition of mitogen-stimulated expression of IDO mRNA (IDO mRNA) | IC50 [3, 10] | IC50 [3, 11] | IC50 [3, 12] | effect of low doses on activity of the IDO enzyme [3] | KB antagonism of CB1/CB2 agonists (CB1/CB2) | influence on viability of THP-1 cells [4]
1 | C=C(C)[C@@H]1CCC(C)=C[C@H]1c1c(O)cc(CCCCC)cc1O [CBD, 2-[(1R,6R)-3-methyl-6-prop-1-en-2-yl-1-cyclohex-2-enyl]-5-pentylbenzene-1,3-diol] | almost completely, inhibit | 3.1 µg/mL (≈ 9.86 µM) | 3.7 µg/mL (≈ 11.8 µM) | 8.2 µg/mL (≈ 26.1 µM) | micromolar range | 8.6 µg/mL (≈ 27.3 µM) | 8.5 µg/mL (≈ 27 µM) | 7.3 µg/mL (≈ 23.2 µM) | 0.3 µg/mL (≈ 0.954 µM) | faint suppression of tryptophan degradation | almost completely, inhibit | 2.8 µg/mL (≈ 8.9 µM) | 1.4 µg/mL (≈ 4.45 µM) | 1.2 µg/mL (≈ 3.82 µM) | modest but significant increase | low nanomolar range | did not show any influence
2 | CCCCCc1cc(O)c2c(c1)OC(C)(C)[C@@H]1CCC(C)=C[C@@H]21 [THC, (6aR,10aR)-6,6,9-Trimethyl-3-pentyl-6a, 7,8,10a-tetrahydro-6H-benzo[c]chromen-1-ol] | almost completely, inhibit | 6.7 µg/mL (≈ 21.3 µM) | 5.3 µg/mL (≈ 16.9 µM) | 16.7 µg/mL (≈ 53.1 µM) | – | 17.5 µg/mL (≈ 55.6 µM) | 15.2 µg/mL (≈ 48.3 µM) | 14.5 µg/mL (≈ 46.1 µM) | 0.6 µg/mL (≈ 1.91 µM) | did not influence tryptophan metabolism | almost completely, inhibit | 4.2 µg/mL (≈ 13.4 µM) | 5.5 µg/mL (≈ 17.5 µM) | 2.6 µg/mL (≈ 8.27 µM) | modest but significant increase | – | did not show any influence
